Reference: US20130101624A1, “LINEAR IGE PEPTIDE EPITOPES OF HAZELNUT ALLERGEN COR A 1 AND CELERY ANTIGEN API 1” (CHARITE UNIVERSITATSMEDIZIN BERLIN, priority 2010, published 2013)

How the values were obtained:
[1] = system: human IgE antibodies (sera of celery allergic patients and healthy subjects); assay: Human IgE antibody binding to Api g 1.0101 derived 12-meric peptides arrayed on cellulose membrane (SPOT pepscan), probed with sera; conditions: for share of celery allergic individuals whose serum IgE responded to the peptide / recognition by sera of celery allergic patients: sera of 21 celery allergic patients; for share of celery allergic individuals whose serum IgE responded to the peptide / IgE binding in sera of healthy controls / recognition by sera of celery allergic patients: diluted 1:5; for share of celery allergic individuals whose serum IgE responded to the peptide: spot positive if SInorm above membrane cut off; for number of celery allergic patients whose sera IgE antibodies bind the sequence: of 21 celery allergic patients; for IgE binding in sera of healthy controls: sera of 17 healthy subjects
Description: (§1) Subsequently, these sequences were synthesized as peptide arrays on cellulose membranes according to SPOT technology. A highly specific secondary anti-human IgE antibody with minimum cross-reactivity towards cellulose membrane-bound peptides was employed.
(§2) Synthetic arrays were probed with sera randomly chosen from a well described cohort of subjects, including 21 patients with a defined allergic reaction to celery, 13 patients with a defined allergic reaction to hazelnut and 17 healthy individuals. Captured human IgE antibodies were detected by a HRP-labeled secondary antibody and binding was visualized by chemiluminescence.
The optimal conditions for screening the sera of 21 celery allergic patients and 17 healthy controls were as follows: (i) replica of a 12-meric pepscan with a shift of three amino acids covering the Api g 1.0101 sequence (or cor a 1 sequence, respectively) synthesized on high-loaded N-CAPE membranes (640 nmol/cm2-760 nmol/cm2); (ii) prior to treatment with sera, membranes were blocked with the Sigma-Genosys blocking buffer for 2 h at room temperature; (iii) arrays were probed for 16 h at 4° C. with diluted sera (1:5) for IgE antibody binding; (iv) the captured human IgE antibodies were detected with the HRP-labeled anti-human IgE antibody (A 9667, Sigma-Aldrich) and visualized by chemiluminescence; (v) spot signal intensities were measured on a Lumilmager and processed with the LumiAnalyst software. To check the reproducibility of our screening procedure, three different peptide arrays were incubated and evaluated for each person (allergic and healthy).
Sera binding patterns could be reproduced in repeated incubation experiments. Although inter-membrane absolute spot signal intensities differed, the relative differences between spot signal intensities were nearly the same. This enabled comparison of spot signal intensities from different membranes by applying an additional normalization procedure. We defined an IgE antibody binding spot as positive if its normalized signal intensity (SInorm) was higher than the calculated cut off value of the appropriate membrane.
Peptide array synthesis: Overlapping peptide sequences (7-, 12- and 24-mer) with a shift of three amino acids) of Api g 1.0101 or cor a 1 were prepared by a MultiPep SPOT-robot (INTAVIS Bioanalytical Instruments AG, Köln, Germany). Array design was performed with the aid of the in-house software LISA 1.83. Amino acids were used as Fmoc-protected Opfp-esters with the following side protection groups: tert-butyl ester (OtBu) for E and D, tert-butyl ether (tBu) for S, T and Y, tert-butoxycarbonyl (Boc) for K and W, triphenylmethyl (Trt) for C, N, Q and H and 2,2,4,6,7-pentamethyldihydrobenzofuran-5-sulfonyl (Pbf) for R. For standard SPOT-synthesis, double couplings of 0.3 M solutions of amino acids in 1-methyl-2-pyrollidone (NMP; Fluka, Steinheim, Germany) were applied. After the final Fmoc-deprotection step and washing procedure, cleavage of the side chain protecting groups was performed according to our standard two-step deprotection protocol.
Human IgE antibody binding studies: The spotted peptide arrays were prewashed with ethanol (1×10 min), washed with Tris-buffered saline (TBS), pH 8.0 (3×10 min), and blocked for 2 h at room temperature with blocking buffer. The membranes were incubated with the patients' sera (dilution 1:5) in blocking buffer overnight at 4° C., washed with TBS, followed by a second incubation with anti-human IgE antibody (ε-chain specific) conjugated with horse radish peroxidase (HRP) (A 9667, Sigma-Aldrich, St. Louis, USA) in blocking buffer for 2 h at room temperature. To remove excess antibody the membrane was washed with TBS (3×10 min). Detection was performed with Uptilight HRP blot chemiluminescent substrate (Uptima, Interchim, Montiugon Cedex, France) with an exposure time of 2 min. […]

[2] = system: human IgE antibodies (sera of hazelnut allergic patients); assay: Human IgE antibody binding to Cor a 1.0301 derived 12-meric peptide array (SPOT pepscan), probed with sera; conditions: sera of 13 hazelnut allergic patients
Description: An array of overlapping peptides representing the entire sequence of major hazelnut allergen Cor a 1.0301 was synthesized and probed with the participants' sera. Sera of hazelnut allergic patients show binding to different distinct regions of Cor a 1. In particular, the region of dodecapeptides 17 to 22 is the most important region for IgE-binding.
as §1
as §2, with “chemiluminescence. […]” for “chemiluminescence.”
Human IgE antibody binding studies: The spotted peptide arrays were prewashed with ethanol (1×10 min), washed with Tris-buffered saline (TBS), pH 8.0 (3×10 min), and blocked for 2 h at room temperature with blocking buffer. […] The signal intensities were recorded as Biomedical Light Units (BLU) by a Lumilmager™ (Boehringer Mannheim GmbH, Mannheim, Germany) using the LumiAnalyst software. […]

Sequence: IITLPDGGPITT (listed as Apium graveolens) [compound 19]
- share of celery allergic individuals whose serum IgE responded to the peptide [1]: 29%

Sequence: AGKEKASGLFKA (listed as Corylus avellana) [COR A 1. PEP47]
- recognition by sera of hazelnut allergic patients [2]: recognized by all sera of hazelnut allergic patients

Sequence: NHVVLVPTADGG [peptide 34]
- number of celery allergic patients whose sera IgE antibodies bind the sequence [1]: at least six
- IgE binding in sera of healthy controls [1]: not reacting with any sera IgE antibody from healthy subjects
- share of celery allergic individuals whose serum IgE responded to the peptide [1]: 29%

Sequence: IFQGFVIDVDTV (listed as Apium graveolens) [peptide 7]
- number of celery allergic patients whose sera IgE antibodies bind the sequence [1]: at least six
- IgE binding in sera of healthy controls [1]: not reacting with any sera IgE antibody from healthy subjects
- share of celery allergic individuals whose serum IgE responded to the peptide [1]: 38%

Sequence: GGPITTMTLRID (listed as Apium graveolens) [compound 21]
- share of celery allergic individuals whose serum IgE responded to the peptide [1]: 29%

Sequence: VLVPTADGGSIC (listed as Apium graveolens) [peptide 35]
- spot signal intensity (BLU), ranking ([1]; average spot signal intensity, chemiluminescence, FIG. 3): highest measured spot signal intensity
- number of celery allergic patients whose sera IgE antibodies bind the sequence [1]: at least six
- IgE binding in sera of healthy controls [1]: not reacting with any sera IgE antibody from healthy subjects
- IgE binding in sera of healthy controls ([1]; listed as VLVPTADGGSIC): no binding
- recognition by sera of celery allergic patients [1]: recognized by the sera from all the celery allergic patients
- recognition by sera of celery allergic patients ([1]; listed as VLVPTADGGSIC): recognized by all sera of celery allergic patients
- share of celery allergic individuals whose serum IgE responded to the peptide [1]: 100%

Sequence: PHGGSILKSISK (listed as Corylus avellana) [COR A 1. PEP37]
- recognition by sera of hazelnut allergic patients [2]: recognized by all sera of hazelnut allergic patients

Sequence: PTADGGSICKTT (listed as Apium graveolens) [compound 36]
- share of celery allergic individuals whose serum IgE responded to the peptide [1]: 43%

Sequence: GDGGPGTLKIIT (listed as Apium graveolens) [compound 16]
- share of celery allergic individuals whose serum IgE responded to the peptide [1]: 38%
